We go through 1 compound from patent publication US5859026A, “Quinoline carboxylic acid” (priority 1995, dated 1999).

Data set [1] has as its system E. colacae 963. The experiment in a line: Antibacterial activity (MIC), standard strain. In kind it is cell-based. As to conditions: Enterobacter cloacae; standard strain E. colacae 963, Gram -, 10^6 viable cells per ml; read-out: minimum inhibitory concentration (MIC). As for the experimental part:
(§1) 1. Antibacterial spectrum against standard strains and clinically isolated strains
Antibacterial activities (minimum inhibitory concentration: MIC) were determined according to the standard method of the Japan Society of Chemotherapy (Chemotherapy (Tokyo), 29 (1), 76, 1981) by using standard strains and strains isolated from patients of infectious disease (clinically isolated strains) and applying 10^6 viable cells per ml. […].

Data set [2] relates to Male Wistar rats. The experiment in a line: Induction of convulsions, intracerebroventricular (i.c.v.) administration. The data set is classed as in vivo, rat. As to conditions: 30 minutes after i.p. fenbufen 50 mg/kg, observed at least 4 hours. As for the experimental part:
2) Intracerebroventricular (i.c.v.) administration
Male Wistar rats (weighing 180-220 g) were anesthetized with sodium pentobarbital at 45 mg/kg, i.p., and then the head of the rat was fixed in a stereotaxic apparatus. A stainless steel guide cannula for intracerebroventricular injectionin in 0.6 mm diameter was implanted as a guide cannula so as to be positioned at 1.5 mm above the left lateral cerebroventricle (A:6.2,R:1.0,H:+1.0) according to the brain atlas of De Groot (1959). The guide cannula was fixed by using a dental cement, and then closed with a stainless steel stylet in 0.3 mm diameter. Potassium penicillin G (10,000 units) were subcutaneously administered to prevent an infection. The rats were subjected to the experiments after recovery time for several days from the surgery.
For the measurement of the induction of convulsions, 50 mg/kg of fenbufen was intraperitoneally administered, and then the test compound was intracerebroventricularly administered after 30 minutes from the administration of fenbufen by means of a stainless steel cannula in 0.3 mm diameter that was connected with a polyethylene catheter and adjusted so as to be 1.5 mm longer than the guide cannula for an administration at an accurate position of cerebroventricle (H:+1.0). […] After the completion of the above experiment, the administered positions were confirmed by intraventricularly injecting 10 μl of 1% Evans blue to each of the rats, and followed by sectioning the brains.

The test system of data set [3] is S. marcescens IAM 1184. In words: Antibacterial activity (MIC), standard strain. In kind it is cell-based. As to conditions: Serratia marcescens, IAM1184; standard strain S. marcescens IAM 1184, Gram -, 10^6 viable cells per ml; read-out: minimum inhibitory concentration (MIC).
Source text: as §1

For data set [4], the system named is K. pneumoniae PCI-602. The experiment in a line: Antibacterial activity (MIC), standard strain. The data set is classed as cell-based. As to conditions: Klebsiella pneumoniae, PCI602; standard strain K. pneumoniae PCI-602, Gram -, 10^6 viable cells per ml; read-out: minimum inhibitory concentration (MIC).
Source text: as §1

The subject of data set [5] is E. coli NIHJ JC-2. In words: Antibacterial activity (MIC), standard strain. In kind it is cell-based. As to conditions: Escherichia coli, NIHJJC2; standard strain E. coli NIHJ JC-2, Gram -, 10^6 viable cells per ml; read-out: minimum inhibitory concentration (MIC).
Source text: as §1

Data set [6] relates to S. aureus FDA 209P JC-1. The experiment in a line: Antibacterial activity (MIC), standard strain. In kind it is cell-based. As to conditions: Staphylococcus aureus, FDA209P; standard strain S. aureus FDA 209P JC-1, Gram +, 10^6 viable cells per ml; read-out: minimum inhibitory concentration (MIC).
Source text: as §1

Data set [7] has as its system S. marcescens HNR1544. The experiment in a line: Antibacterial activity (MIC), clinically isolated strain. To be noted: Serratia marcescens; clinical isolate S. marcescens HNR1544, Gram -, 10^6 viable cells per ml; read-out: minimum inhibitory concentration (MIC). The data set is classed as cell-based.
Source text: as §1

Data set [8] concerns S. aureusHPC292. The description is as above. The data set is classed as cell-based. To be noted: Staphylococcus aureus, read-out: minimum inhibitory concentration (MIC).
Source text: as §1

Data set [9] has as its system E. cloacae HNR1939. The description is as above. The data set is classed as cell-based. As to conditions: Enterobacter cloacae; clinical isolate E. cloacae HNR1939, Gram -, 10^6 viable cells per ml; read-out: minimum inhibitory concentration (MIC).
Source text: as §1

Data set [10] has as its system S. aureus HPC527. Described as above. In kind it is cell-based. To be noted: Staphylococcus aureus; clinical isolate S. aureus HPC527, Gram +, 10^6 viable cells per ml; read-out: minimum inhibitory concentration (MIC).
Source text: as §1

Data set [11] deals with E. faecalis HPC975. The description is as above. The data set is classed as cell-based. To be noted: Enterococcus faecalis; clinical isolate E. faecalis HPC975, Gram +, 10^6 viable cells per ml; read-out: minimum inhibitory concentration (MIC).
Source text: as §1

Data set [12] relates to A. calcoaceticus HNR916. Described as above. The data set is classed as cell-based. To be noted: Acinetobacter calcoaceticus; clinical isolate A. calcoaceticus HNR916, Gram -, 10^6 viable cells per ml; read-out: minimum inhibitory concentration (MIC).
Source text: as §1

Data set [13] deals with K. pneumoniae HNR828. The description is as above. In kind it is cell-based. To be noted: Klebsiella pneumoniae; clinical isolate K. pneumoniae HNR828, Gram -, 10^6 viable cells per ml; read-out: minimum inhibitory concentration (MIC).
Source text: as §1

Data set [14] deals with E. faecalis HPC984. The description is as above. In kind it is cell-based. To be noted: Enterococcus faecalis; clinical isolate E. faecalis HPC984, Gram +, 10^6 viable cells per ml; read-out: minimum inhibitory concentration (MIC).
Source text: as §1

For data set [15], the system named is K. pneumoniae HNR869. The data set is described as above. In kind it is cell-based. As to conditions: Klebsiella pneumoniae; clinical isolate K. pneumoniae HNR869, Gram -, 10^6 viable cells per ml; read-out: minimum inhibitory concentration (MIC).
Source text: as §1

Data set [16] deals with E. cloacae HNR1946. Described as above. The data set is classed as cell-based. To be noted: Enterobacter cloacae; clinical isolate E. cloacae HNR1946, Gram -, 10^6 viable cells per ml; read-out: minimum inhibitory concentration (MIC).
Source text: as §1

Data set [17] concerns E. cloacae HNR1941. The description is as above. The data set is classed as cell-based. To be noted: Enterobacter cloacae; clinical isolate E. cloacae HNR1941, Gram -, 10^6 viable cells per ml; read-out: minimum inhibitory concentration (MIC).
Source text: as §1

Data set [18] deals with A. calcoaceticus HNR904. The data set is described as above. In kind it is cell-based. As to conditions: Acinetobacter calcoaceticus; clinical isolate A. calcoaceticus HNR904, Gram -, 10^6 viable cells per ml; read-out: minimum inhibitory concentration (MIC).
Source text: as §1

Data set [19] concerns male ICR mice. In words: Induction of convulsions, intraperitoneal (i.p.) administration. The data set is classed as in vivo, mouse. To be noted: 100 mg/kg i.p., 30 minutes after oral fenbufen 100 mg/kg. The source says: 4. The induction of convulsions
1) Intraperitoneal (i.p.) administration

Data set [20] deals with Male Hartley guinea pigs. The experiment in a line: Phototoxicity. As to conditions: 10 mg/kg intravenous, UV exposure 90 minutes, observed 24 hours after irradiation; animals with erythemas/animals tested. In kind it is in vivo, guinea pig. As for the experimental part: Male Hartley guinea pigs were intravenously administered with test compounds at a dose of 10 mg/kg, and then immediately exposed to WVA on their backs for 90 minutes. Erythemas on the UV irradiated skin were observed 24 hours after the irradiation.

[21] abbreviates: animals with convulsions/animals tested.

Structures are written as SMILES. Values after ≈ are worked out from the molar mass of the structure shown.

Consider `Cc1c(N2CCNCC2)c(F)c(N)c2c(=O)c(C(=O)O)cn(C3CC3)c12` [Reference Compound B, 5-amino-1-cyclopropyl-6-fluoro-1,4-dihydro-8-methyl-4-oxo-7-piperazinylquinoline-3-carboxylic acid, reference compound], for which the MIC in data set [1] came to 0.1 µg/mL (≈ 0.277 µM); in [3], 0.2 µg/mL (≈ 0.555 µM); in data set [4], 0.006 µg/mL (≈ 0.0166 µM); in [5], 0.05 µg/mL (≈ 0.139 µM); in data set [6], 0.1 µg/mL (≈ 0.277 µM); in [7], 0.1 µg/mL (≈ 0.277 µM). Moreover, the MIC in [8] was 25 µg/mL (≈ 69.4 µM); in data set [9] it was 0.78 µg/mL (≈ 2.16 µM); in data set [10], 0.1 µg/mL (≈ 0.277 µM); in data set [11], 12.5 µg/mL (≈ 34.7 µM); in [12], 0.1 µg/mL (≈ 0.277 µM); in data set [13], 12.5 µg/mL (≈ 34.7 µM). Besides, the MIC was 0.39 µg/mL (≈ 1.08 µM) in [14]; 6.25 µg/mL (≈ 17.3 µM) in data set [15]; 0.78 µg/mL (≈ 2.16 µM) in data set [16]; 25 µg/mL (≈ 69.4 µM) in data set [17]; 50 µg/mL (≈ 139 µM) in data set [18]. The “Induction of convulsions, i.c.v. (in words)” value in data set [2] is “convulsions were observed in all of the animals (each three animals)”. Moreover, in data set [2] (setting [21]), the “Induction of convulsion, i.c.v. (number of rats with convulsions)” value is 3/3. Moreover, the “Induction of convulsions, i.p. (in words)” value in [19] was “inducing actions of convulsions were not noticeable”. In addition, the “sedative symptoms considered as precursory symptoms of convulsions, i.p.” value in data set [19] was “All of the animals exhibited sedative symptoms”; in data set [19] (listed as reference compound B), “all of the animals exhibited sedative symptoms”. Besides, the “Induction of convulsion, i.p. (number of mice with convulsions)” value in [19] (setting [21]) is recorded as 0/6. Moreover, the “Phototoxicity (number of guinea pigs with erythemas)” value in data set [20] was 0/5.
